Results from US20250353864A1, “INDAZOLE CONTAINING MACROCYCLES AND THEIR USE” (BLOSSOMHILL THERAPEUTICS, INC., priority 2022, published 2025).

How the values were obtained:
Type in all cases: biochemical
EGFR L858R mutant = EGFR L858R mutant (Homo sapiens (Human), UniProt P00533, L858R); experiment: HotSpot radiometric kinase assay, EGFR L858R mutant; conditions: 10 μM ATP
Experimental: (§1) Biochemical Assays for Inhibition of Wild-Type and Mutant EGFRs
(§2) Briefly, specific kinase/substrate pairs along with required cofactors were prepared in reaction buffer; 20 mM Hepes pH 7.5, 10 mM […], 1 mM EGTA, 0.02% Brij35, 0.02 mg/ml BSA, 0.1 mM Na3VO4, 2 mM DTT, 1% DMSO. Compounds were delivered into the reaction, followed […] later by addition of a mixture of ATP (Sigma, St. Louis MO) and ^33P ATP (Perkin Elmer, Waltham MA) to a final concentration of 10 μM. Reactions were carried out at room temperature for 120 min, followed by spotting of the reactions onto P81 ion exchange filter paper (Whatman Inc., Piscataway, NJ). Unbound phosphate was removed by extensive washing of filters in 0.75% phosphoric acid. […] IC50 values and curve fits were obtained using Prism (GraphPad Software).

EGFR (D770_N771insNPG) = EGFR (D770_N771insNPG) (Homo sapiens (Human), UniProt P00533, INS770NPG); experiment: HotSpot radiometric kinase assay, EGFR (D770_N771insNPG); conditions: 10 μM ATP, read-out: EGFR (Δ770_N771insNPG) IC50
Chain of EGFR (D770_N771insNPG) (P00533 other isoform, or with tags, fused parts or gaps del 1-668/ins NPG behind 770 limits assumed): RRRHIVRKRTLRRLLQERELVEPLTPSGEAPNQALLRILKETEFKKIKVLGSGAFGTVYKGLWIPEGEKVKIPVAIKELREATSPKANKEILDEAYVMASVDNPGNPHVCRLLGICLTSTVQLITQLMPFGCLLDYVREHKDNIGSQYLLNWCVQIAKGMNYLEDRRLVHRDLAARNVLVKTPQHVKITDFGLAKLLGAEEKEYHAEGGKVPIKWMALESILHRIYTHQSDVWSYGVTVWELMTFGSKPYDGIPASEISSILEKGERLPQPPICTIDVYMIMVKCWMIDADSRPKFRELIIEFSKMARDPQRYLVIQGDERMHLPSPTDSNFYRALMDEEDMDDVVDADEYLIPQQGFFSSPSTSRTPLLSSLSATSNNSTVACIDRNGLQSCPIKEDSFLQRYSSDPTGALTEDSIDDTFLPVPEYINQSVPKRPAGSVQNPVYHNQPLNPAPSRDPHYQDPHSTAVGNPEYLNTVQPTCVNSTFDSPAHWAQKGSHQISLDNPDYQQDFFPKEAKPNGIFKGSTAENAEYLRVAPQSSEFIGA
Experimental: as §1, §2

EGFR Δ746-750 mutant = EGFR Δ746-750 mutant (Homo sapiens (Human), UniProt P00533, DEL746-750); experiment: HotSpot radiometric kinase assay, EGFR Δ746-750 mutant; conditions: 10 μM ATP
Chain of EGFR Δ746-750 mutant (P00533 other isoform, or with tags, fused parts or gaps del 1-668/del 746-750 limits assumed): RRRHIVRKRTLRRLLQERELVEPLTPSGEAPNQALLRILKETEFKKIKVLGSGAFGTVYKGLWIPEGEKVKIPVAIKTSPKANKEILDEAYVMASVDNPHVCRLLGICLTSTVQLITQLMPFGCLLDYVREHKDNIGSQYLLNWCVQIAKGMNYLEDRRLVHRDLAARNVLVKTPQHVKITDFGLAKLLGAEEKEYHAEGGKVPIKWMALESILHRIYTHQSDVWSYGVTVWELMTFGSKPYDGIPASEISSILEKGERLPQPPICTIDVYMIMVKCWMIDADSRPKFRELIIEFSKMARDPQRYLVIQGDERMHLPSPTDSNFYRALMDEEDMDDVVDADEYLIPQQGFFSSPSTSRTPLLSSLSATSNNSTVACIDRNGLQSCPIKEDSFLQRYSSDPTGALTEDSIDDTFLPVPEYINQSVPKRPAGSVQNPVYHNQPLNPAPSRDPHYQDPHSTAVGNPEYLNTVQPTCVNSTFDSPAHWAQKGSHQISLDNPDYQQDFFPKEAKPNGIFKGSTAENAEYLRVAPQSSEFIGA
Experimental: as §1, §2

EGFR WT = EGFR WT (Homo sapiens (Human), UniProt P00533); experiment: HotSpot radiometric kinase assay (Reaction Biology), EGFR WT; conditions: 10 μM ATP
Experimental: as §1, §2

[1] = biological target: EGFR Δ746-750/C797S mutant (Homo sapiens (Human), UniProt P00533, C797S/DEL746-750); experiment: HotSpot radiometric kinase assay, EGFR Δ746-750/C797S mutant; conditions: 10 μM ATP
Chain of EGFR Δ746-750/C797S mutant (P00533 other isoform, or with tags, fused parts or gaps C797S/del 1-668/del 746-750 limits assumed): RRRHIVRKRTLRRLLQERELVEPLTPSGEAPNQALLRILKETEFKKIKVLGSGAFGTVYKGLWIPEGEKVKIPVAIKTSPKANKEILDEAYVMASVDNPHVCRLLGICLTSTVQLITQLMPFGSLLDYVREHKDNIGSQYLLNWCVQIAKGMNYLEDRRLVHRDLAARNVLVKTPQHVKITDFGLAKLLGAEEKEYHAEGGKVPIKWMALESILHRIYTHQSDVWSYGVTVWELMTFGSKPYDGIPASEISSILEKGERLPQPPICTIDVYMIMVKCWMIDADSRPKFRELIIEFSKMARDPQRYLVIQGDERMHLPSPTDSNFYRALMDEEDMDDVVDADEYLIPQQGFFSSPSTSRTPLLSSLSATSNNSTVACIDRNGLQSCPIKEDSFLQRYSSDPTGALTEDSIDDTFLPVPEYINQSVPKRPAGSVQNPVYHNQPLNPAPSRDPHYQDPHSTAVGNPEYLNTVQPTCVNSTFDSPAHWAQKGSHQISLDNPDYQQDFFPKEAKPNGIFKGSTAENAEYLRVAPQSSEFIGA
Experimental: as §1, §2

[2] = biological target: EGFR L858R/T790M/C797S mutant (Homo sapiens (Human), UniProt P00533, C797S/L858R/T790M); experiment: HotSpot radiometric kinase assay, EGFR L858R/T790M/C797S mutant; conditions: 10 μM ATP
Experimental: as §1, §2

EGFR L858R/T790M mutant = EGFR L858R/T790M mutant (Homo sapiens (Human), UniProt P00533, L858R/T790M); experiment: HotSpot radiometric kinase assay, EGFR L858R/T790M mutant; conditions: 10 μM ATP
Chain of EGFR L858R/T790M mutant (P00533 25-1210 T790M/L858R): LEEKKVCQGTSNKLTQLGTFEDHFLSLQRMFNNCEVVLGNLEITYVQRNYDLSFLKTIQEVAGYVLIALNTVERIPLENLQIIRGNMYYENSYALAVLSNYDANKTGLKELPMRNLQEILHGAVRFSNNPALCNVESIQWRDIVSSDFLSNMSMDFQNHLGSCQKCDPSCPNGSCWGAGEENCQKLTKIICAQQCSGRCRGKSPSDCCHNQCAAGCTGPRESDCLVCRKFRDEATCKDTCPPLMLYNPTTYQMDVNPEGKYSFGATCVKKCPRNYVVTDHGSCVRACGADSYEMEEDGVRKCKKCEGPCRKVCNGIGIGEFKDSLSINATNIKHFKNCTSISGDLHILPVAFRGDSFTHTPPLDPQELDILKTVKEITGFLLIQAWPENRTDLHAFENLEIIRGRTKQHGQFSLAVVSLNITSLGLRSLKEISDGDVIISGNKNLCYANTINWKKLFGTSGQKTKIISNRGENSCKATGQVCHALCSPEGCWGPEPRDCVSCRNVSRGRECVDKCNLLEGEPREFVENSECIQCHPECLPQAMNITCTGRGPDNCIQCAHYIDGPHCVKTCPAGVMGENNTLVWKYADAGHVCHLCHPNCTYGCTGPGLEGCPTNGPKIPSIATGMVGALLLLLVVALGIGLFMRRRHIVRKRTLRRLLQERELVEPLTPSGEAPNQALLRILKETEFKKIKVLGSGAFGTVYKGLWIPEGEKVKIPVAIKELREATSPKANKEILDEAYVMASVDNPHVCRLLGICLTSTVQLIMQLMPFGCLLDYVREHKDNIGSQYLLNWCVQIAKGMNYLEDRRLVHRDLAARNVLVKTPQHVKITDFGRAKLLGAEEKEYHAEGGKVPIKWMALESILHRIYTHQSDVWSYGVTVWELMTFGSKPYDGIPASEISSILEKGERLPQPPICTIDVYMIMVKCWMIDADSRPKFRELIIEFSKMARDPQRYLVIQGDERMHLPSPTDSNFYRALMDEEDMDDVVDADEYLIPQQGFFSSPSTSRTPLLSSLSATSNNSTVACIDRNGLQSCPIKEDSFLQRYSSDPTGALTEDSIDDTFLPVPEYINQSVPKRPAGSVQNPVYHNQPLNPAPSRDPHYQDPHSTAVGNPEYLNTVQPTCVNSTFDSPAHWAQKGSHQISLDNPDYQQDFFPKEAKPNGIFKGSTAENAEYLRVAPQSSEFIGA
Experimental: as §1, §2

Chain of EGFR L858R mutant (P00533 25-1210 L858R): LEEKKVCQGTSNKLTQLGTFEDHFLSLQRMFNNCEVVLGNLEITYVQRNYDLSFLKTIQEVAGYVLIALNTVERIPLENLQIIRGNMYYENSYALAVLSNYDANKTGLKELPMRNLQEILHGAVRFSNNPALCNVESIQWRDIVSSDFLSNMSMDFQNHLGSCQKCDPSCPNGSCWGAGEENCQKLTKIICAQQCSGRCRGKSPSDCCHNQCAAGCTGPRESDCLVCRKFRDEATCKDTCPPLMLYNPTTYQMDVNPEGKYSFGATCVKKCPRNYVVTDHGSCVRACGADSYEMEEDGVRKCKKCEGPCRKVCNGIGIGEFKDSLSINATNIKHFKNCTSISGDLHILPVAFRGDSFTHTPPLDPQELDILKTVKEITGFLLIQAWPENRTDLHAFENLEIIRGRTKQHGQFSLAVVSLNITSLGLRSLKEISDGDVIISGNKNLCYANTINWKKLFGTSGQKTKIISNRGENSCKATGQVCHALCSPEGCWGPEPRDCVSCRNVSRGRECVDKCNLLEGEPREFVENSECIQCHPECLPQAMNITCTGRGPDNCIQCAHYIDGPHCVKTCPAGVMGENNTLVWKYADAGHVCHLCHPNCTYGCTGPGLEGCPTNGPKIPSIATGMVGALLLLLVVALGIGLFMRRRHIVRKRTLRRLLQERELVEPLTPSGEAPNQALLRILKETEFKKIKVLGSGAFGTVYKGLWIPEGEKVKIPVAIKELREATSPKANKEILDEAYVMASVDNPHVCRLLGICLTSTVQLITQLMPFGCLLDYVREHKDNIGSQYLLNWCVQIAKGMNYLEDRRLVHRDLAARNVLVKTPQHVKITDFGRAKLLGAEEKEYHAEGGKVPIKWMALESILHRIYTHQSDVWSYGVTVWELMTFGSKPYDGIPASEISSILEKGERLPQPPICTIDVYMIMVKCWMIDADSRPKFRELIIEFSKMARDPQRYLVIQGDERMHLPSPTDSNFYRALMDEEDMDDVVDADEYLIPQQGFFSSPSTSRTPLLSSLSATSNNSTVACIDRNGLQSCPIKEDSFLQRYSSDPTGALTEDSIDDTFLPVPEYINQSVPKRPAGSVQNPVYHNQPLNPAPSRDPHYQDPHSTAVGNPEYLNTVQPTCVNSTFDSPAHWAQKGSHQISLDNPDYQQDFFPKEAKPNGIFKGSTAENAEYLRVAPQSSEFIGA

Row | IC50 (EGFR L858R mutant) | IC50 (EGFR (D770_N771insNPG)) | IC50 (EGFR Δ746-750 mutant) | IC50 (EGFR WT) | IC50 [1] | IC50 [2] | IC50 (EGFR L858R/T790M mutant) | Structure (SMILES)
1 | 12.8 nM | 45.6 nM | 15 nM | 99.8 nM | 8.1 nM | 0.55 nM | 0.72 nM | C[C@H]1CN(C)Cc2nn3c(c2/C=C/c2n[nH]c4ccc(cc24)-c2cnn(C)c2O1)CN(CCS(C)(=O)=O)CC3 [Example 166, (10S,20E)-18-[2-(methanesulfonyl)ethyl]-8,10,12-trimethyl-2,8,10,11,12,13,16,17,18,19-decahydro-3,5-ethenopyrazino[1′,2′:1,5]pyrazolo [3,4-f]dipyrazolo[3,4-j:4′,3′-n][1,4]oxazacyclopentadecine]
2 | 103 nM | 344 nM | 105 nM | 358 nM | 171 nM | 40.4 nM | 11.5 nM | Cc1nn([C@H]2C[C@@H](N(C)CCN(C)C)C2)c2c1/C=C/c1n[nH]c3ccc(cc13)-c1cnn(C)c1OCCCO2 [Example 103, N^1-{(1s,3s)-3-[(17E)-8,16-dimethyl-2,8,11,12-tetrahydro-10H,14H-3,5-etheno[1,5]dioxacyclopentadecino[10,11-c:15,14-c′:6,7-c″]tripyrazol-14-yl]cyclobutyl}-N^1,N^2,N^2-trimethylethane-1,2-diamine]
3 | 37.3 nM | 32.3 nM | 12.9 nM | 147 nM | 60.1 nM | 14 nM | 1.6 nM | COC(C)(C)c1ccc2c(c1)O[C@@H]1CCN(CCOc3c(cnn3C)-c3ccc4[nH]nc(c4c3)/C=C/2)C1=O [Example 115, (10R,16E)-13-(2-methoxypropan-2-yl)-3-methyl-3,5,6,9,10,19-hexahydro-8H-20,22-etheno-7,10-methanodipyrazolo[3,4-i:4′,3′-m][1,8,5]benzodioxazacyclooctadecin-25-one]
4 | 11.4 nM | 138 nM | 49.2 nM | 69.2 nM | 16.7 nM | 5.02 nM | 0.86 nM | Cc1c2c(nn1CCN1CCOCC1)CN(C)C[C@H](C)Oc1c(cnn1C)-c1ccc3[nH]nc(c3c1)/C=C/2 [Example 93, (10S,17E)-8,10,12,16-tetramethyl-15-[2-(morpholin-4-yl)ethyl]-2,10,11,12,13,15-hexahydro-8H-3,5-ethenotripyrazolo[3,4-f:3′,4′-j:4″,3″- n][1,4]oxazacyclopentadecine]
5 | 70.1 nM | 73.6 nM | 32.3 nM | 98.7 nM | 27.1 nM | 3.68 nM | 3.81 nM | Cn1ncc2c1OCCN1CC[C@@H](Oc3ccccc3/C=C/c3n[nH]c4ccc-2cc34)C1=O [Example 70, (10R,16E)-3-methyl-3,5,6,9,10,19-hexahydro-8H-20,22-etheno-7,10-methanodipyrazolo[3,4-i:4,3′-m][1,8,5]benzodioxazacyclooctadecin-25-one]
6 | 20.7 nM | 94.5 nM | 61.5 nM | 112 nM | 86.4 nM | 0.62 nM | 0.58 nM | Cc1nn(CCO)c2c1/C=C/c1n[nH]c3ccc(cc13)-c1cnn(C)c1OC(C1CCC1)CN(C)C2 (stereo not drawn) [Example 152, 2-[(17E)-10-cyclobutyl-8,12,16-trimethyl-2,8,10,11,12,13-hexahydro-14H-3,5-ethenotripyrazolo[3,4-f:3′,4′-j:4″,3″-n][1,4]oxazacyclopentadecin-14-yl]ethan-1-ol]
7 | 22.2 nM | 50 nM | 15 nM | 42.7 nM | 8.48 nM | 1.12 nM | 1.22 nM | Cc1nn(CCO)c2c1/C=C/c1n[nH]c3ccc(cc13)-c1cnn(C)c1CN(C)CCO2 [Example 56, 2-[(17E)-8,10,16-trimethyl-2,8,9,10,11,12-hexahydro-14H-3,5-ethenotripyrazolo[3,4-f:4′,3′-j:4″,3″- n][1,4]oxazacyclopentadecin-14-yl]ethan-1-ol]
8 | 9.99 nM | 17.2 nM | 17.6 nM | 44.1 nM | 14.1 nM | 5.75 nM | 0.82 nM | CN(C)Cc1ccc2c(c1)O[C@@H]1CCN(CCOc3c(cnn3C)-c3ccc4[nH]nc(c4c3)/C=C/2)C1=O [Example 94, (10R,16E)-13-[(dimethylamino)methyl]-3-methyl-3,5,6,9,10,19-hexahydro-8H-20,22-etheno-7,10-methanodipyrazolo[3,4-i:4′,3′-m][1,8,5]benzodioxazacyclooctadecin-25-one]
9 | 24.7 nM | 59.1 nM | 38.7 nM | 50.8 nM | 39.2 nM | 11.2 nM | 4.37 nM | Cc1nn([C@H]2CCNC[C@@H]2O)c2c1/C=C/c1n[nH]c3ccc(cc13)-c1cnn(C)c1OCCCO2 (racemic) [Example 80, (rac)-4-[(17E)-8,16-dimethyl-2,8,11,12-tetrahydro-10H,14H-3,5-etheno[1,5]dioxacyclopentadecino[10,11-c:15,14-c′:6,7-c′]tripyrazol-14-yl]piperidin-3-ol]
10 | 74.9 nM | 196 nM | 285 nM | 242 nM | 94.1 nM | 9.45 nM | 5.29 nM | Cc1nn(C)c2c1/C=C/c1n[nH]c3ccc(cc13)-c1cnn(C)c1CN(C)C[C@@H](C)O2 (single isomer, unassigned) [Example 96]
11 | 828 nM | > 1000 nM | 296 nM | 782 nM | 228 nM | 33.5 nM | 43.3 nM | Cc1nn(C)c2c1/C=C/c1n[nH]c3ccc(cc13)-c1cnn(C)c1OCCN(C)C(=O)CO2 [Example 63, (19E)-8,12,16,18-tetramethyl-2,11,12,16-tetrahydro-8H,10H-3,5-ethenotripyrazolo[3,4-h:3′,4′-l:4″,3″- p][1,7,4]dioxazacycloheptadecin-13(14H)-one]
12 | 1.66 nM | 3.21 nM | 0.75 nM | 1.63 nM | 1.98 nM | 5.27 nM | 2.55 nM | CC(C)Oc1nn(CCO)c2c1/C=C/c1n[nH]c3ccc(cc13)-c1cnn(C)c1O[C@H](C)[C@H]1CCCN1C2 [Example 253, 2-[(8aR,9R,19E)-9,11-dimethyl-1-[(propan-2-yl)oxy]-7,8,8a,9,11,17-hexahydro-6H-14,16-ethenotripyrazolo[3,4-f:3′,4′-j:4″,3″-n]pyrrolo[2,1-c][1,4]oxazacyclopentadecin-3(4H)-yl]ethan-1-ol]
13 | 0.47 nM | 6.5 nM | 0.58 nM | 3.02 nM | 0.4 nM | 0.33 nM | 0.09 nM | CCc1nn(CCO)c2c1/C=C/c1n[nH]c3ccc(cc13)-c1cnn(C)c1O[C@@H](C)CN(C)C2 [Example 129, 2-[(10S,17E)-16-ethyl-8,10,12-trimethyl-2,8,10,11,12,13-hexahydro-14H-3,5-ethenotripyrazolo[3,4-f:3′,4′-j:4″,3″-n][1,4]oxazacyclopentadecin-14-yl]ethan-1-ol]
14 | > 1000 nM | > 1000 nM | 971 nM | > 1000 nM | 577 nM | 60.4 nM | 282 nM | C[C@H]1CN(C)Cc2c(c(CN(C)C)nn2CCO)/C=C/c2n[nH]c3ccc(cc23)-c2cnn(C)c2O1 [Ex. 266, 2-{(10S,17E)-16-[(dimethylamino)methyl]-8,10,12-trimethyl-2,8,10,11,12,13-hexahydro-14H-3,5-ethenotripyrazolo[3,4-f:3′,4′-j:4″,3″-n][1,4]oxazacyclopentadecin-14-yl}ethan-1-ol]
15 | 4.1 nM | 6.34 nM | 7.95 nM | 14.5 nM | 6.65 nM | 3.26 nM | 0.41 nM | CN1CCN(Cc2ccc3c(c2)O[C@@H]2CCN(CCOc4c(cnn4C)-c4ccc5[nH]nc(c5c4)/C=C/3)C2=O)CC1 [Example 92, (10R,16E)-3-methyl-13-[(4-methylpiperazin-1-yl)methyl]-3,5,6,9,10,19-hexahydro-8H-20,22-etheno-7,10-methanodipyrazolo[3,4-i:4′,3′-m][1,8,5]benzodioxazacyclooctadecin-25-one]
16 | 285 nM | > 1000 nM | 112 nM | 1460 nM | 130 nM | 27 nM | – | Cc1c2c(nn1C)CN(C)CCOc1c(cnn1C)-c1ccc3[nH]nc(c3c1)/C=C/2 [Example 44, (17E)-8,12,15,16-tetramethyl-2,10,11,12,13,15-hexahydro-8H-3,5-ethenotripyrazolo[3,4-f:3′,4′-j:4″,3″- n][1,4]oxazacyclopentadecine]
